In patent publication US11369110B2, “Compositions and methods for enhancing microbial stability” (NOVOZYMES BIOAG A/S, priority 2013, dated 2022):

Experiments:
[1] = system: B. elkani SEMIA 587 and B. elkani SEMIA 5019; experiment: Liquid inoculant survivability in the presence of insecticide containing benzyl hemi-formal (Example 2); format: cell-based, Bradyrhizobium elkani; conditions: Table 4
Description: The general protocol described in Example 1 was modified to process larger samples. A commercial insecticide containing benzyl hemi-formal was tested at concentrations that would emulate the recommended doses both for the inoculants and the insecticide.
(§1) Sterile 250 ml erlenmeyers containing sterile magnetic stirrers were used instead of test tubes. The commercial insecticide was transferred to a series of erlenmeyers and the stated amounts of microbial stabilizing compounds (yeast extract and soy meal peptone from Merck and tryptophan from Ajinomoto) were premixed at 250 rpm for 6 hours.
To each of the corresponding erlenmeyer flasks, 30 ml of the inoculants (as described in example 1) was added, mixed, and samples were obtained immediately and at 2 hr intervals. Samples were processed as described in Example 1.

[2] = system: B. japonicum SEMIA 5079 and B. japonicum SEMIA 5080; experiment: Liquid inoculant survivability in the presence of insecticide containing benzyl hemi-formal (Example 5); format: cell-based, Bradyrhizobium japonicum; conditions: Table 10
Description: The general protocol described in Example 4 was modified to process larger samples. A commercial insecticide containing benzyl hemi-formal was tested at concentrations that would emulate the recommended doses both for the inoculants and the insecticide.
as §1
To each of the corresponding erlenmeyer flasks, 30 ml of inoculant (as described in example 4) was added, mixed, and samples were obtained immediately and at 2 hr intervals. Samples were processed as described in Example 4.

[3] = system: B. elkani SEMIA 587 and B. elkani SEMIA 5019; experiment: Liquid inoculant survivability in the presence of benzyl hemi-formal (Example 1); format: cell-based, Bradyrhizobium elkani; conditions: at the concentration tested; Table 2
Description: (§2) The activity of two microbially stabilizing compounds, yeast extract and albumin, were tested for reducing the effects of the preservative benzyl hemi-formal (at a concentration reflecting that provided by the current recommendation for a commercial insecticide that includes that preservative).
(§3) Using conventional aseptic techniques, 10 ml of a commercial liquid inoculant containing B. elkani SEMIA 587 and B. elkani SEMIA 5019 (Nitragin Optimize II, commercially available from Novozymes) was transferred to a series of sterile test tubes, to which 0.7 ml of a 2% solution containing benzyl hemi-formal was added and, in the corresponding tubes, 0.3 g of Yeast extract (commercially available from Merck) or 0.3 g Albumin (commercially available from SIGMA) were incorporated. A control of bacterial survival consisting of the inoculants without a microbial stabilizing compound was tested for comparison.
(§4) The tubes were mixed using a vortex agitator, transferred to a 30° C. orbital shaker. After 20 minutes incubation (Time 0), 0.1 ml samples were taken, and conventionally diluted 1/10 in a series of tubes containing 0.9 ml of sterile saline solution (0.85% NaCl in distilled water). […] Colonies were counted after seven days incubation. The number of colony forming units per ml (CFU ml^−1) was calculated taking into account the plated dilutions and the plated volume. […]

[4] = system: B. japonicum SEMIA 5079 and B. japonicum SEMIA 5080; experiment: Liquid inoculant survivability in the presence of benzyl hemi-formal (Example 4); format: cell-based, Bradyrhizobium japonicum; conditions: at the concentration tested; Table 8
Description: as §2
as §3, with “japonicum” for “elkani”, “5079” for “587”, “5080” for “5019”, “CellTech HC,” for “Optimize II,”
as §4

Row | Compound | Effect on the deleterious effects induced by benzyl hemi-formal containing agrochemical on a microbial population (in words) [1] | Effect on the deleterious effects induced by benzyl hemi-formal containing agrochemical on a microbial population (in words) [2] | Effect on the deleterious effects induced by benzyl hemi-formal (in words) [3] | Effect on the deleterious effects induced by benzyl hemi-formal (in words) [4]
1 | N[C@@H](Cc1c[nH]c2ccccc12)C(=O)O [tryptophan] | reduce the deleterious effects | reduce the deleterious effects |  | 
2 | albumin |  |  | reduce the deleterious effects | reduce the deleterious effects
